Like-named read-outs stand apart in the source and are kept apart here.
Legend:
[1] = Stopped-flow fluorescence kinetics of ATP binding
Protocol: Final concentration of protein was thus 0.1 μM.

[2] = system: nerve terminals of dissociated hippocampal neurons; test: Cytosolic ATP in nerve terminals during action potential firing; assay type: cell-based, rat; details: 6 sec at 50 Hz, 5 mM glucose + 10 μM KA
[3] = system: axonal mitochondria of primary hippocampal neurons; test: mito-iATPSnFR2.HaloTag imaging of mitochondrial ATP in neurons; assay type: cell-based, rat; details: 1.25 mM lactate + 1.25 mM pyruvate + 10 μM oligomycin
Protocol: All experiments involving animals were performed in accordance with protocols approved by the Weill Cornell Medicine Institutional Animal Care and Use Committee. Neurons were derived from Sprague-Dawley rats (Charles River Laboratories strain code: 001, RRID: RGD_734476) of either sex on postnatal days 0-2).
(§1) Primary neuronal cultures were prepared as previously described. Hippocampal CA1 to CA3 regions were dissected, dissociated, and plated onto poly-L-ornithine-coated coverslips. Plating media consisted of the minimal essential medium, 0.5% glucose, insulin (0.024 g/l), transferrin ([…]), GlutaMAX 1%, N-21 (2%), and fetal bovine serum (10%). After 1-3 days in vitro (DIV), cells were fed and maintained in media with the following modifications: cytosine β-D-arabinofuranoside (4 μM) and FBS 5%. Cultures were incubated at 37° C. in a 95% air/5% CO2 incubator. […]
(§2) Coverslips were loaded onto a custom chamber, mounted on a Zeiss inverted microscope and perfused at ˜100 μl min^−1 with Tyrode's solution containing: 119 mM NaCl, 2.5 mM KCl, 30 mM glucose, 25 mM HEPES, 2 mM CaCl2), 2 mM MgCl2, 50 μM DL-2-amino-5-phosphonovaleric acid (APV, AP5), 10 μM 6-cyano-7-nitroquinoxaline-2,3-dione (CNQX), adjusted to pH 7.4. […] Fluorescence was stimulated with OBIS 488 nm LX or OBIS 637 nm LS lasers (Coherent) passing through a laser speckle reducer (LSR 3005 at 12° diffusion angle, Optotune). […]

LMTK- cells = test: Green:red ratio imaging in parental LMTK- fibroblasts; assay type: cell-based, mouse
Protocol: (§3) Rho° and the parental LMTK-cells were maintained in T-75 flasks with DMEM+10% FBS+1 mM pyruvate+5 μM uridine. Two days prior to transfection, they were split into a 24-well plate (half Rho°, half LMTK) at 0.6 and 0.1 million cells per well, respectively. Cells were transfected with iATPSnFR2.HaloTag variants by lipofectamine (0.5 μg DNA+2 μL lipofectamine 2000 per well) for 4-6 hours in DMEM lacking FBS or antibiotics. Transfection media was replaced with fresh DMEM+10% FBS+penicillin/streptomycin overnight. Cells were labeled with JFX650 HaloTag ligand by adding the fluorophore to 100 nM for an hour. Cells were washed with Mammalian Cell Imaging Buffer and imaged in a Cytation 5 imaging reader (BioTek) over the course of about 2 hours. After about 20 minutes of imaging to establish a baseline fluorescence, the culture plate was removed from the instrument and buffer was replaced with the query buffer. The equilibration buffer contained 10 mM glucose, and the query buffers contained 10 mM 2dOG.
(§4) Images were background subtracted and aligned for movement artefacts with the Gen5 software package that controls the Cytation 5 instrument. Images were assembled as TIF stacks and imported into ImageJ. […] Those ROIs were used to determine the ratio of green to red fluorescence for each well. […]

[4] = target: T1, iATPSnFR2.A95A.A119L.HaloTag-JFX650 (L1-VLVG, L2-ICV); cpSFGFP inserted in epsilon subunit of Bacillus subtilis PS3 F0-F1 ATPase; mutations A95A, A119L; SEQ ID N (Bacillus sp. PS3, UniProt P07678); test: ATP/nucleotide titration, binding curve fits; details: for fluorescence change in response to nucleoside triphosphate: GTP, CTP, TTP; for Kd: A95A.A119L
T1 construct: E. coli, Ni-NTA purified
T1 sequence (P07678 whole entry, stated change not applied): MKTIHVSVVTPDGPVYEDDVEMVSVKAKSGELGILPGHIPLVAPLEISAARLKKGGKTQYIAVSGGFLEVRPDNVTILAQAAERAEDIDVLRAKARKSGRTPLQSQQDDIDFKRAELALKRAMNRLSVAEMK
Source text: (1A) Artistic rendering of iATPSnFR2.HaloTag made with PyMol. The N-terminal fragment (residues 1-109) of the epsilon subunit of ATPase (orange, based on 2E5Y.PDB) is fused to cpSFGFP (green). The C-terminus of cpSFGFP is fused to the residual ATP-binding helix (residues 110-129) of the epsilon subunit (pink), which itself is fused to HaloTag (cyan). “Linkers” are shown as sticks in yellow. […] HaloTag fluorophore is shown as sticks in red. […] (1C-1E) Ratio of green (iATPSnFR2) to red (HaloTag-JFX650) fluorescence in fibroblasts transfected with three affinity variants of iATPSnFR2-HaloTag. […] Cells were incubated for 21 minutes in buffer containing 10 mM glucose, and then switched to buffer containing 10 mM 2-deoxyglucose. (1C) Rho° cells. (1D) Parental LMTK cell line. (1E) Parental cell line treated with both 2-deoxyglucose and oligomycin.
ATP (black), CTP (cyan), GTP (grey), TTP (purple).
(§5) Purified protein was mixed with 1.1 molar equivalents of JFX650 HaloTag Ligand and incubated at room temperature for 1 hour and then at 4° C. overnight. Excess HaloTag Ligand was removed by gel filtration on a PD-10 column (GE Life Sciences) and re-concentrated by ultrafiltration.
The iATPSnFR2.HaloTag-JFX650 was the primary protein used for in vitro characterization.

MaLion = details: cited from earlier work
ChemoG-ATPSiR = details: cited from earlier work
[5] = system: synaptic boutons of hippocampal neurons; test: Syn-iATPSnFR2.HaloTag imaging of ATP depletion in boutons; assay type: cell-based, rat; details: 5 mM glucose + 10 μM KA + 0.3 μM TTX
[6] = TTP titration of purified iATPSnFR2 sensor; assay type: binding
Protocol: iATPSnFR2 variants were transformed into E. coli BL21 (DE3) pLysS cells. Protein expression was induced by growth in 300 mL autoinduction media supplemented with 100 μg/mL ampicillin at 30° C. […] Fractions that were fluorescent were pooled and concentrated by ultrafiltration (Amicon) and then dialyzed by Slide-A-Lyzer cassette (30 kDa cutoff) in Mammalian Cell Imaging Buffer. Protein concentration was quantified by alkali denaturation and measurement of the GFP chromophore, with an extinction coefficient of […] at 447 nm.
as §5

Rho° (ρ^0) cells = test: Green:red ratio imaging in Rho° fibroblasts; assay type: cell-based, mouse; details: 10 mM 2dOG
Protocol: as §3, §4

[7] = ATP titration with added inorganic phosphate; assay type: binding; details: 20 mM PO4, pH 7
[8] = system: axonal mitochondria of primary hippocampal neurons; test: Mitochondrial matrix ATP without glucose (mito-iATPSnFR2); assay type: cell-based, Sprague-Dawley rats
Protocol: Data is represented as mean±SE for N=4 (each condition). […] Data from N=4 for each condition is represented as mean±SE, p-value (**≤0.001 for PA and PA+Etox) was determined using unpaired samples t-test. ns signifies non-significant change in mean values.
as §1, §2

[9] = system: axonal mitochondria of primary neurons; test: Axonal mitochondrial ATP (mito-iATPSnFR2) after removal of glucose; assay type: cell-based
Protocol: Similar results were obtained in neurons where LDs were induced by blocking DDHD2 activity with KLH45 for 24 hours.

[10] = pH dependence of fluorescence; assay type: physicochemical; details: ligand-free sensor

A95K: medium affinity iATPSnFR2 variant, characterised as HaloTag-JFX650 fusion
rate of ATP binding / fluorescence change, comparison [1]: faster than A95A.A119L
fluorescence change on action potential firing [2]: much smaller amplitude

CC[C@H]1/C=C/C=C/C[C@@H](C)[C@H](O)[C@@](C)(O)C(=O)[C@@H](C)[C@H](O)[C@@H](C)C(=O)[C@@H](C)[C@H](O)[C@@H](C)/C=C/C(=O)O[C@@H]2[C@H](C)[C@H](CC1)O[C@]1(CC[C@H](C)[C@H](C[C@@H](C)O)O1)[C@H]2C [oligomycin]
mitochondrial ATP signal [3]: further collapse of the ATP signal
fluorescence after 2dOG and oligomycin (LMTK- cells; parental cells, both 2dOG and oligomycin): dropped in a manner similar to the ρ^0 cells

Nc1ccn([C@@H]2O[C@H](COP(=O)(O)OP(=O)(O)OP(=O)(O)O)[C@@H](O)[C@H]2O)c(=O)n1 [CTP]
fluorescence change in response to nucleoside triphosphate ([4]; FIG. 5E): changes fluorescence
Kd ([4]; read-out: affinity for CTP (binding curve fit), FIG. 5E): ~10 mM

S29W.A95K: high affinity iATPSnFR2 variant, characterised as HaloTag-JFX650 fusion
rate of ATP binding / fluorescence change, comparison [1]: faster than A95A.A119L

Nc1ncnc2c1ncn2[C@@H]1O[C@H](COP(=O)(O)OP(=O)(O)O)[C@@H](O)[C@H]1O [ADP]
ΔF/F for ADP [4]: ~6
Kd ([4]; read-out: affinity for ADP (binding curve fit), head-to-head with ATP): 5.3 mM
Kd ([4]; read-out: affinity for ADP, FIG. 1B, 5D): 5.3 mM

Nc1nc2c(ncn2[C@@H]2O[C@H](COP(=O)(O)OP(=O)(O)OP(=O)(O)O)[C@@H](O)[C@H]2O)c(=O)[nH]1 [GTP]
change in fluorescence with GTP (MaLion): no change in fluorescence
fluorescence change in response to nucleoside triphosphate ([4]; FIG. 5E): changes fluorescence
Kd ([4]; read-out: affinity for GTP (binding curve fit), FIG. 5E): ~10 mM
change in fluorescence with GTP (ChemoG-ATPSiR): no change in fluorescence

Nc1ncnc2c1ncn2[C@@H]1O[C@H](COP(=O)(O)O)[C@@H](O)[C@H]1O [AMP]
affinity for AMP [4]: minimal, if any, affinity

A95A.A119L: low affinity iATPSnFR2 variant, characterised as HaloTag-JFX650 fusion
average green to red fluorescence ratio in boutons [5]: greater drop than the medium affinity A95K variant
fluorescence response to TTP [6]: but not TTP
green fluorescence after glucose replaced with 2dOG (Rho° (ρ^0) cells): nearly non-fluorescent within minutes of treatment
effect of inorganic phosphate on the sensor [7]: negligibly affected

O=C(N(CCc1ccccc1)C1CCCCC1)n1ncc(-c2ccc(OC(F)(F)F)cc2)n1 [KLH45]
mitochondrial ATP levels in absence of glucose ([8]; KLH45 for 24 hours, then removed): ATP levels are sustained
mitochondrial ATP levels after removal of glucose ([9]; DDHD2 blocked for 24 hours, then glucose and KLH45 removed): sustained

iATPSnFR2: improved ATP sensor: cpSFGFP inserted in epsilon subunit of ATPase, L1-VLVG, L2-ICV, A95A, A119L
pKa [10]: about 6.0
effect of inorganic phosphate on the sensor [7]: not affected

O=CC[C@@H](O)[C@H](O)[C@H](O)CO [2dOG, 2-deoxyglucose]
green fluorescence after glucose replaced with 2dOG (Rho° (ρ^0) cells): rapidly dropped
fluorescence after 2dOG treatment (LMTK- cells; 10 mM 2dOG, parental LMTK- cells): decreased fluorescence only in the parental LMTK-cells expressing the weakest affinity variant

CCCCCCCCCCCCCCCC(=O)O [palmitic acid]
mitochondrial ATP levels in absence of glucose ([8]; palmitic acid pre-fed for 4 hours, 10 minutes): mitochondrial ATP levels were sustained
mitochondrial ATP levels in absence of glucose ([9]; pre-fed for 4 hours, 10 minutes): sustained

CCOC(=O)[C@@]1(CCCCCCOc2ccc(Cl)cc2)CO1 [etomoxir]
mitochondrial ATP levels after removal of glucose ([9]; after KLH45 24 hours, etomoxir included): ATP decline over a 10-minute period
decline in mitochondrial ATP level ([9]; palmitic acid pre-fed neurons, applied when removing glucose): identical to the control neurons without any fuel supplement

Cc1cn([C@H]2C[C@H](O)[C@@H](COP(=O)(O)OP(=O)(O)OP(=O)(O)O)O2)c(=O)[nH]c1=O [TTP]
fluorescence change in response to nucleoside triphosphate ([4]; FIG. 5E): not

Source: US20240393319A1, “FLUORESCENT SENSORS AND METHODS OF MAKING AND USING” (Howard Hughes Medical Institute, priority 2023, published 2024)
